These results are taken from BindingDB's records for doi:10.7270/Q24J0CNF (Chevron Chemical, 1990).

A word on the Ki: it is the equilibrium dissociation constant of an inhibitor or competing ligand from its target. A high value points to a looser hold on the target.

The target of the experiment is Glutamine synthetase (Homo sapiens, UniProt P15104). Nature of the experiment: Enzyme Assay. The note with it: pH 7. How it is done:
The enzyme was assayed at pH 7.0 using the pyruvate kinase/lactate dehydroenase coupling system.

Sequence of Glutamine synthetase (P15104 whole entry): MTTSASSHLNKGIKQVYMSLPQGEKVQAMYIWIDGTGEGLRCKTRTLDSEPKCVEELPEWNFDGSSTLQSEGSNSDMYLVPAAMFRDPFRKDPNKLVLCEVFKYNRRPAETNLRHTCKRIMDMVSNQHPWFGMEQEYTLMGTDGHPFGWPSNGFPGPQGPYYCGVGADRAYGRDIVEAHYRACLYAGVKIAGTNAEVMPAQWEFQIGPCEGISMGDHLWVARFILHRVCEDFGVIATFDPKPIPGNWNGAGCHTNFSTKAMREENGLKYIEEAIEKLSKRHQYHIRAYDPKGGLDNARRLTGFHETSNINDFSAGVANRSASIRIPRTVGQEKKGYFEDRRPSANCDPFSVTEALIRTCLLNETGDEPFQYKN

Compound `CP(=O)(O)CCC(N)C(=O)O` (stereo not drawn) [Phosphinothricin analog, 1 (L Isomer)] yielded a Ki of 0.22 nM.

For the compound `CC(CC(N)C(=O)O)P(C)(=O)O` (configuration not stated) [Phosphinothricin analog, 2 (D,L mixture)], affinity was put at a Ki of 140 nM.
